Laboratory results published in patent US20230036854A1, “HETEROCYCLIC SPIRO-COMPOUNDS AS AM2 RECEPTOR INHIBITORS” (THE UNIVERSITY OF SHEFFIELD, priority 2018, published 2023).

target: T1, AM2 receptor (1321N1 cells transfected with CALCRL+RAMP3) (Homo sapiens, UniProt O60896+Q16602); assay: AM2 receptor inhibition, LANCE cAMP agonist-antagonist competition assay; assay type: cell-based; conditions: inhibition of AM induced cAMP activation, read-out: AM2 D2 protocol: pIC50 (converted)
T1 construct: host or cells: 1321N1 cells
Method: Compounds were assessed for their ability to inhibit ligand-induced elevations of cAMP, using the Perkin Elmer LANCE cAMP assay using commercially-available cells expressing a specific receptor of interest using the following general procedure:
Compounds were prepared in dimethyl sulfoxide (DMSO—99.9% pure) (Sigma Aldrich, Cat #: D4540) added to powder stocks to produce a 20 mM solution (100% DMSO) that was sonicated at 37° C. for 10 minutes to fully dissolve the compounds. The 20 mM stocks were diluted further in DMSO to produce a 2 mM solution that was sonicated at 37° C. for 10 minutes. 2 mM stocks were dissolved in assay/stimulation buffer to produce a 400 μM solution that was sonicated at 37° C. for 10 minutes for all cAMP assays. All stocks were stored at −20° C. Then serial dilution (Dilution factor: 10) was performed to achieve the desire experimental concentrations.
Competition assays were performed according to the manufactures instructions using LANCE® TR-FRET cAMP assay kit (Perkin Elmer, Cat #: AD0264). Serial dilutions (3 μl/well) of the molecules were plated in a 384-well OptiPlate (Perkin Elmer, Cat #: 6007299) in duplicates. Appropriate controls (100% stimulation: Forskolin and 0% stimulation: Vehicle control) (6 μl/well) were included in each plate for data normalization. Following the compound addition, 6 μl of G-protein coupled receptor overexpressing cells/Alexa Fluor antibody solution (1:100 dilution) was added in each well at a desired density of 2500cells/well. The overexpressing cell lines were purchased from DiscoveRx, Birmingham, UK. After spinning the plate at 1000 rpm for 1 minute and vortexing briefly, the cells were pre-incubated with the compounds for 30 minutes at room temperature (covered). Then 3 μl of the equivalent peptide ligand (EC50 dose) was added to all the wells except vehicle and forskolin controls. The plate were then spun down at 1000 rpm for 1 minute and once finished they were vortexed briefly and covered. Cells were stimulated in the presence of the ligands for 15 minutes at room temperature. After stimulation 12 μl of detection mix (Europium-Chelate streptavidin/biotinylated cAMP tracer solution) was added to all wells and incubated for 60 minutes at room temperature. The plate was then read on the Enspire multimode Plate reader (Perkin Elmer), at; 320/340 nm excitation and 615/665 nm emission was recorded.
Assay/Stimulation Buffer (30 mL)—pH 7.4 • 28 mL Hank's Balanced salt solution (+MgCl2, +CaCl2)—(Thermo Fisher Cat #:14170112) • 150 μl HEPES (1M)—(Thermo Fisher Cat #:15630080) • 400 μl Stabilizer (DTPA) Purified BSA (7.5%)—(Perkin Elmer, Cat #: CR84-100)
The ability of a compound to inhibit the AM induced cAMP activation in AM2 receptor-expressing cells (1321N1 cells transfected with CALCRL+RAMP3, sourced from DiscoverX catalogue number 95-0169C6) was assessed using the protocol above.

T1 sequence (Q16602 23-461): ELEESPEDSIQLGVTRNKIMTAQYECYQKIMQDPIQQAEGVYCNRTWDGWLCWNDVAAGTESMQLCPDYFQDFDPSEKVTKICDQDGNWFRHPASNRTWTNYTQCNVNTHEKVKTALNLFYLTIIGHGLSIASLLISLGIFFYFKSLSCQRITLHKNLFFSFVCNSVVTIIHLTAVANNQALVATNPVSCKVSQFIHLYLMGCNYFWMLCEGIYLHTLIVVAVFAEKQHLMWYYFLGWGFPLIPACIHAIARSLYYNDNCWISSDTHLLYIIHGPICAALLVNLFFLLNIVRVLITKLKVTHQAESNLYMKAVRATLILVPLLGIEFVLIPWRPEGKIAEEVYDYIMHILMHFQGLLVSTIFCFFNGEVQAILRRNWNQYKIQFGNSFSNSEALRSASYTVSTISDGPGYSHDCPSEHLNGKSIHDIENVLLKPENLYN
T1 sequence (O60896 24-148): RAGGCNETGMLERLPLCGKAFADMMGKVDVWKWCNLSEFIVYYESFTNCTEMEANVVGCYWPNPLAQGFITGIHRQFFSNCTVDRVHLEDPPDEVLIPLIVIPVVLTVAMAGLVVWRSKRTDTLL

IC50 [nM]	SMILES
95.5	CNCc1ccccc1CN(CC(=O)Nc1ccc2c(c1)C[C@@]1(C2)C(=O)Nc2ncccc21)C(=O)C1(C)CCN(C(=O)CC2CC2)CC1 [Example 27, (R)-1-(2-Cyclopropylacetyl)-4-methyl-N-(2-((methylamino)methyl)benzyl)-N-(2-oxo-2-((2′-oxo-1,1′,2′,3-tetrahydrospiro[indene-2,3′-pyrrolo[2,3-b]pyridin]-5-yl)amino)ethyl)piperidine-4-carboxamide]
3.55	CNCc1ccccc1CN(CC(=O)Nc1ccc2c(c1)C[C@@]1(C2)C(=O)Nc2ncccc21)C(=O)C1(C)CCN(C(=O)CN)CC1 [Example 28, (R)-1-(2-Aminoacetyl)-4-methyl-N-(2-((methylamino)methyl)benzyl)-N-(2-oxo-2-((2′-oxo-1,1′,2′,3-tetrahydrospiro[indene-2,3′-pyrrolo[2,3-b]pyridin]-5-yl)amino)ethyl)piperidine-4-carboxamide]
17.8	CNCc1ccccc1CN(CC(=O)Nc1ccc2c(c1)C[C@@]1(C2)C(=O)Nc2ncccc21)C(=O)C1(C)CCN(C(=O)c2ccc(N)cn2)CC1 [Example 29, (R)-1-(5-Aminopicolinoyl)-4-methyl-N-(2-((methylamino)methyl)benzyl)-N-(2-oxo-2-((2′-oxo-1,1′,2′,3-tetrahydrospiro[indene-2,3′-pyrrolo[2,3-b]pyridin]-5-yl)amino)ethyl)piperidine-4-carboxamide]
0.589	CNCc1ccccc1CN(CC(=O)Nc1ccc2c(c1)CC1(C2)C(=O)Nc2ncccc21)C(=O)C1(C)CCN(C(=O)CN2CCNCC2)CC1 (stereo not drawn) [Example 30, 4-Methyl-N-(2-((methylamino)methyl)benzyl)-N-(2-oxo-2-((2′-oxo-1,1′,2′,3-tetrahydrospiro[indene-2,3′-pyrrolo[2,3-b]pyridin]-5-yl)amino)ethyl)-1-(2-(piperazin-1-yl)acetyl)piperidine-4-carboxamide]
1.15	CNCc1ccccc1CN(CC(=O)Nc1ccc2c(c1)CC1(C2)C(=O)Nc2ncccc21)C(=O)C1(C)CCN(C(=O)CCN(C)C)CC1 (stereo not drawn) [Example 31]
2.34	CNCc1ccccc1CN(CC(=O)Nc1ccc2c(c1)C[C@@]1(C2)C(=O)Nc2ncccc21)C(=O)C1(C)CCN(C(=O)CN2CCN(C(C)=O)CC2)CC1 [Example 32, (R)-1-(2-(4-Acetylpiperazin-1-yl)acetyl)-4-methyl-N-(2-((methylamino)methyl)benzyl)-N-(2-oxo-2-((2′-oxo-1,1′,2′,3-tetrahydrospiro[indene-2,3′-pyrrolo[2,3-b]pyridin]-5-yl)amino)ethyl)piperidine-4-carboxamide]
15.1	CNCc1ccccc1CN(CC(=O)Nc1ccc2c(c1)C[C@@]1(C2)C(=O)Nc2ncccc21)C(=O)C1(C)CCN(C(=O)c2cccc(C(=O)O)c2)CC1 [Example 33, (R)-3-(4-Methyl-4-((2-((methylamino)methyl)benzyl)(2-oxo-2-((2′-oxo-1,1′,2′,3-tetrahydrospiro[indene-2,3′-pyrrolo[2,3-b]pyridin]-5-yl)amino)ethyl)carbamoyl)piperidine-1-carbonyl)benzoic Acid]
70.8	CNCc1ccccc1CN(CC(=O)Nc1ccc2c(c1)C[C@@]1(C2)C(=O)Nc2ncccc21)C(=O)C1(C)CCN(C(=O)c2ccccc2C(=O)O)CC1 [Example 34, (R)-2-(4-Methyl-4-((2-((methylamino)methyl)benzyl)(2-oxo-2-((2′-oxo-1,1′,2′,3-tetrahydrospiro[indene-2,3′-pyrrolo[2,3-b]pyridin]-5-yl)amino)ethyl)carbamoyl)piperidine-1-carbonyl)benzoic Acid]
3.8	CNCc1ccccc1CN(CC(=O)Nc1ccc2c(c1)C[C@@]1(C2)C(=O)Nc2ncccc21)C(=O)C1(C)CCN(C(=O)c2ccc(C(=O)O)cc2)CC1 [Example 35, (R)-4-(4-Methyl-4-((2-((methylamino)methyl)benzyl)(2-oxo-2-((2′-oxo-1,1′,2′,3-tetrahydrospiro[indene-2,3′-pyrrolo[2,3-b]pyridin]-5-yl)amino)ethyl)carbamoyl)piperidine-1-carbonyl)benzoic Acid]

Continued, compound first:

SMILES	IC50 [nM]
CNCc1ccccc1CN(CC(=O)Nc1ccc2c(c1)C[C@@]1(C2)C(=O)Nc2ncccc21)C(=O)C1(C)CCN(C(=O)c2ncccn2)CC1 [Example 18, (R)-4-Methyl-N-(2-((methylamino)methyl)benzyl)-N-(2-oxo-2-((2′-oxo-1,1′,2′,3-tetrahydrospiro[indene-2,3′-pyrrolo[2,3-b]pyridin]-5-yl)amino)ethyl)-1-(pyrimidine-2-carbonyl)piperidine-4-carboxamide]	7.41
CNCc1ccccc1CN(CC(=O)Nc1ccc2c(c1)C[C@@]1(C2)C(=O)Nc2ncccc21)C(=O)C1(C)CCN(C(=O)c2cnccn2)CC1 [Example 19, (R)-4-Methyl-N-(2-((methylamino)methyl)benzyl)-N-(2-oxo-2-((2′-oxo-1,1′,2′,3-tetrahydrospiro[indene-2,3′-pyrrolo[2,3-b]pyridin]-5-yl)amino)ethyl)-1-(pyrazine-2-carbonyl)piperidine-4-carboxamide]	4.47
CNCc1ccccc1CN(CC(=O)Nc1ccc2c(c1)CC1(C2)C(=O)Nc2ncccc21)C(=O)C1(C)CCN(C(=O)C2CC2)CC1 (stereo not drawn) [Example 20, 1-(Cyclopropanecarbonyl)-4-methyl-N-(2-((methylamino)methyl)benzyl)-N-(2-oxo-2-((2′-oxo-1,1′,2′,3-tetrahydrospiro[indene-2,3′-pyrrolo[2,3-b]pyridin]-5-yl)amino)ethyl)piperidine-4-carboxamide]	4.27
CNCc1ccccc1CN(CC(=O)Nc1ccc2c(c1)CC1(C2)C(=O)Nc2ncccc21)C(=O)C1(C)CCN(C(=O)COC)CC1 (stereo not drawn) [Example 21, 1-(2-Methoxyacetyl)-4-methyl-N-(2-((methylamino)methyl)benzyl)-N-(2-oxo-2-((2′-oxo-1,1′,2′,3-tetrahydrospiro[indene-2,3′-pyrrolo[2,3-b]pyridin]-5-yl)amino)ethyl)piperidine-4-carboxamide]	1.51
CNCc1ccccc1CN(CC(=O)Nc1ccc2c(c1)CC1(C2)C(=O)Nc2ncccc21)C(=O)C1(C)CCN(C(=O)CN)CC1 (stereo not drawn) [Example 22, 1-(2-Aminoacetyl)-4-methyl-N-(2-((methylamino)methyl)benzyl)-N-(2-oxo-2-((2′-oxo-1,1′,2′,3-tetrahydrospiro[indene-2,3′-pyrrolo[2,3-b]pyridin]-5-yl)amino)ethyl)piperidine-4-carboxamide]	0.631
CNCc1ccccc1CN(CC(=O)Nc1ccc2c(c1)C[C@@]1(C2)C(=O)Nc2ncccc21)C(=O)C1(C)CCN(C(=O)C(C)NC)CC1 (stereo partly drawn) [Example 23, 4-Methyl-N-(2-((methylamino)methyl)benzyl)-1-(2-(methylamino)propanoyl)-N-(2-oxo-2-(((R)-2′-oxo-1,1′,2′,3-tetrahydrospiro[indene-2,3′-pyrrolo[2,3-b]pyridin]-5-yl)amino)ethyl)piperidine-4-carboxamide]	1.38
CNCc1ccccc1CN(CC(=O)Nc1ccc2c(c1)C[C@@]1(C2)C(=O)Nc2ncccc21)C(=O)C1(C)CCN(C(=O)c2ccncn2)CC1 [Example 24, (R)-4-Methyl-N-(2-((methylamino)methyl)benzyl)-N-(2-oxo-2-((2′-oxo-1,1′,2′,3-tetrahydrospiro[indene-2,3′-pyrrolo[2,3-b]pyridin]-5-yl)amino)ethyl)-1-(pyrimidine-4-carbonyl) piperidine-4-carboxamide]	2.95
CNCc1ccccc1CN(CC(=O)Nc1ccc2c(c1)C[C@@]1(C2)C(=O)Nc2ncccc21)C(=O)C1(C)CCN(C(=O)c2ccn[nH]2)CC1 [Example 25, (R)-4-Methyl-N-(2-((methylamino)methyl)benzyl)-N-(2-oxo-2-((2′-oxo-1,1′,2′,3-tetrahydrospiro[indene-2,3′-pyrrolo[2,3-b]pyridin]-5-yl)amino)ethyl)-1-(1H-pyrazole-5-carbonyl) piperidine-4-carboxamide]	2.14
CNCc1ccccc1CN(CC(=O)Nc1ccc2c(c1)C[C@@]1(C2)C(=O)Nc2ncccc21)C(=O)C1(C)CCN(C(=O)c2cccnn2)CC1 [Example 26, (R)-4-Methyl-N-(2-((methylamino)methyl)benzyl)-N-(2-oxo-2-((2′-oxo-1,1′,2′,3-tetrahydrospiro[indene-2,3′-pyrrolo[2,3-b]pyridin]-5-yl)amino)ethyl)-1-(pyridazine-3-carbonyl) piperidine-4-carboxamide]	4.57
